Data: the NIST ThermoML archive (doi:10.1021/je060355j)

Tests used:
[1] = refractive index (Na D-line) (dimensionless); settings: 101.33 kPa, Liquid
[2] = Liquid; for mass density: 101.32 kPa
[3] = xn = mol fraction of the nth substance listed; settings: 101.32 kPa, Liquid
[4] = excess molar enthalpy (molar enthalpy of mixing); xn = mol fraction of the nth substance listed; settings: 291.15 K, 101.32 kPa, Liquid

CCCCOC=O [butyl methanoate]
Settings	mass density, 291.15 K [kg/m3]	mass density, 298.15 K [kg/m3]	mass density, 308.15 K [kg/m3]	mass density, 318.15 K [kg/m3]	refractive index, 291.15 K	refractive index, 298.15 K	refractive index, 318.15 K	vapor or sublimation pressure, 380.13 K [kPa]
[1]	–	–	–	–	1.3904	1.3872	1.3776	–
[2]	896	888.66	878.24	867.21	–	–	–	101.32

CCOC=O [ethyl methanoate]
Settings	mass density, 291.15 K [kg/m3]	mass density, 298.15 K [kg/m3]	mass density, 308.15 K [kg/m3]	mass density, 318.15 K [kg/m3]	refractive index, 291.15 K	refractive index, 298.15 K	refractive index, 318.15 K	vapor or sublimation pressure, 327.33 K [kPa]
[1]	–	–	–	–	1.3614	1.358	1.3474	–
[2]	924.7	915.16	902.07	888.42	–	–	–	101.32

CCCCCC [hexane]
Settings	mass density, 291.15 K [kg/m3]	mass density, 298.15 K [kg/m3]	mass density, 308.15 K [kg/m3]	mass density, 318.15 K [kg/m3]	refractive index, 291.15 K	refractive index, 298.15 K	refractive index, 318.15 K	vapor or sublimation pressure, 341.76 K [kPa]
[1]	–	–	–	–	1.3765	1.372	1.3618	–
[2]	661.2	654.89	646.07	636.43	–	–	–	101.32

CCCCCC [hexane] + CCCCOC=O
[3], x2 = 0
Settings	mass density [kg/m3]
291.15 K	661.2
298.15 K	654.89
308.15 K	646.07
318.15 K	636.43

CCCCCC [hexane] + CCCOC=O
[3], x2 = 0
Settings	mass density [kg/m3]
291.15 K	661.2
298.15 K	654.89
308.15 K	646.07
318.15 K	636.43

CCCCCC [hexane] + CCOC=O
[3], x2 = 0
Settings	mass density [kg/m3]
291.15 K	661.2
298.15 K	654.89
308.15 K	646.07
318.15 K	636.43

CCCCCC [hexane] + COC=O
[3], x2 = 0
Settings	mass density [kg/m3]
291.15 K	661.2
298.15 K	654.89

COC=O [methyl methanoate]
Settings	mass density, 291.15 K [kg/m3]	mass density, 298.15 K [kg/m3]	refractive index, 291.15 K	refractive index, 298.15 K	vapor or sublimation pressure, 304.7 K [kPa]
[1]	–	–	1.3452	1.3415	–
[2]	976.9	966.54	–	–	101.32

COC=O [methyl methanoate] + CCCCCC
mass density [kg/m3], [3]
Settings	291.15 K	298.15 K
x1 = 0.019	663	–
x1 = 0.0376	–	659.63
x1 = 0.0499	666.3	–
x1 = 0.0816	–	664.26
x1 = 0.0863	670.6	–
x1 = 0.1013	672.6	–
x1 = 0.1209	675.3	–
x1 = 0.1327	–	670.55
x1 = 0.1642	–	674.8
x1 = 0.2033	687.1	–
x1 = 0.2352	–	685.32
x1 = 0.2936	–	695.29
x1 = 0.2986	702.6	–
x1 = 0.3828	718.9	–
x1 = 0.3903	–	714.41
x1 = 0.4841	742.3	–
x1 = 0.4987	–	740.05
x1 = 0.5462	759.1	–
x1 = 0.5979	–	768.9
x1 = 0.6061	777.4	–
x1 = 0.6987	810.1	–
x1 = 0.7062	–	806.5
x1 = 0.7433	–	821.74
x1 = 0.7445	829.1	–
x1 = 0.7956	851.5	–
x1 = 0.7972	–	845.31
x1 = 0.8392	872.6	–
x1 = 0.8497	–	871.94
x1 = 0.903	908.4	–
x1 = 0.905	–	902.05
x1 = 0.9539	939.9	–
x1 = 0.9582	–	936.28
x1 = 1	976.9	966.54

[4]
Settings	excess molar enthalpy [kcal/mol]
x1 = 0.1408	0.253
x1 = 0.252	0.389
x1 = 0.3379	0.462
x1 = 0.4008	0.492
x1 = 0.4618	0.504
x1 = 0.5094	0.502
x1 = 0.5501	0.493
x1 = 0.5862	0.481
x1 = 0.6157	0.462
x1 = 0.6568	0.439
x1 = 0.7033	0.41
x1 = 0.7517	0.37
x1 = 0.7971	0.33
x1 = 0.845	0.281
x1 = 0.8923	0.219
x1 = 0.9292	0.153
x1 = 0.9665	0.0896

CCCOC=O [propyl methanoate]
Settings	mass density, 291.15 K [kg/m3]	mass density, 298.15 K [kg/m3]	mass density, 308.15 K [kg/m3]	mass density, 318.15 K [kg/m3]	refractive index, 291.15 K	refractive index, 298.15 K	refractive index, 318.15 K	vapor or sublimation pressure, 353.92 K [kPa]
[1]	–	–	–	–	1.3778	1.375	1.365	–
[2]	907.8	899.08	888.36	875.32	–	–	–	101.32
